Results: patent publication US20240059688A1, “CONOLIDINE ANALOGUES AS SELECTIVE ACKR3 MODULATORS FOR THE TREATMENT OF CANCER” (Luxembourg Institute of Health (LIH), priority 2020, published 2024)

Assays:
Assay type in all cases: cell-based
CaV 3.2 = biological target: T1, CaV 3.2 (Homo sapiens, UniProt O95180); test: CaV 3.2 calcium assay in stable human CaV3.2-HEK293 cells; settings: control agonist calcium chloride
T1 construct: expressed in transfected cells
Method: (§1) Compounds were evaluated for kappa (KOR), mu (MOR), and delta (DOR) opioid receptor agonist and antagonist activity in three individual cell lines overexpressing Gαq16 (CHO-RD-HGA16, Molecular Devices) and the human kappa, mu, and delta opioid receptors, respectively. The day before the assay, cells were plated into 96-well black-walled assay plates at 30,000 cells/well in Ham's F12 supplemented with 10% fetal bovine serum, and 100 units of penicillin and streptomycin. The cells were incubated overnight at 37° C., 5% CO2. Prior to the assay, Calcium 5 dye (Molecular Devices) was reconstituted according to the manufacturer's instructions. The reconstituted dye was diluted 1:40 in pre-warmed (37° C.) assay buffer (1×HBSS, 20 mM HEPES, 2.5 mM probenecid, pH 7.4 at 37° C.). Growth medium was removed and the cells were gently washed with 100 μL of pre-warmed (37° C.) assay buffer. The cells were incubated for 45 minutes at 37° C., 5% CO2 in 200 μL of the diluted Calcium 5 dye. For the agonist screen, a single concentration of each test compound and receptor-specific controls (U69,593, DAMGO, and DPDPE for KOR, MOR, and DOR, respectively) were prepared at 10× the desired final concentration in 1% DMSO/assay buffer, aliquoted into a 96-well polystyrene plate, and warmed to 37° C. After the dye-loading incubation period, pretreatment solution was added to each well (25 μL of 9% DMSO/assay buffer) and, after 15 min, the plate was read with a FlexStation II (Molecular Devices). Calcium-mediated changes in fluorescence were monitored every 1.52 seconds over a 60 second time period, with the FlexStation II adding 50 μL of test compounds at the 19 second time point (excitation at 485 nm, detection at 525 nm). Peak kinetic reduction (SoftMax, Molecular Devices) relative fluorescence units (RFU) were used to calculate % control agonist Emax with the equation % Emax=(test compound RFU/control agonist RFU)×100. For the antagonist screens, the same procedure was followed except that the pretreatment solution consisted of the test compounds (prepared at […] the desired final concentration in 9% DMSO/assay buffer) and the FlexStation added the EC60 concentration (prepared at 10× the desired final concentration in 1% DMSO/assay buffer) of each respective control agonist. Peak RFU were used to calculate % control EC60 inhibition with the equation % inhibition=((EC60 RFU−test compound RFU)/EC60 RFU)×100. When IC50 determinations were made, the same antagonist screen procedure was followed except that cells were pretreated with 8-pt concentration-response curves of the test compounds. Peak RFU were plotted against the log of compound concentration using non-linear regression analysis to generate IC50 values (GraphPad Prism). Each test sample was analyzed in duplicate in two independent experiments.
Compounds were evaluated for activity at CaV 3.2 using stable human CaV3.2-HEK293 cells and the control agonist calcium chloride. The day before the assay, cells were plated into 96-well black-walled assay plates coated with poly-D-lysine in DMEM-F12 supplemented with 10% fetal bovine serum, 100 units penicillin/streptomycin, and 500 μM sodium pyruvate, and incubated at 37° C., 5% CO2 overnight. Prior to the assay, Calcium 5 dye (Molecular Devices) was reconstituted according to the manufacturer instructions. The reconstituted dye was diluted 1:10 in pre-warmed (37° C.) assay buffer (1×HBSS, […], […], pH 7.4 at 37° C.). The cells were incubated for 45 minutes at 37° C., 5% CO2 in 200 μL of the diluted Calcium 5 dye. Compounds were prepared as described above and the plate was read with a FLIPR Tetra (Molecular Devices). Calcium-mediated changes in fluorescence were monitored every 1 second over a 60 second time period, with the Tetra adding 25 μL of appropriate compound at the 10 second time point (excitation at 470-495 nm, detection at 515-575 nm). […]

human CXCR4 = biological target: T2, human CXCR4 (Homo sapiens, UniProt P61073); test: CXCR4 β-arrestin recruitment assay (PathHunter); settings: human CXCR4-C2Cl2 cells, relative to CXCL-12
T2 construct: host or cells: C2C12
Method: (§2) Compounds were evaluated for agonist activity using a β-arrestin recruitment assay based on β-galactosidase complementation (PathHunter, DiscoverX). Stable human ACKR3-β-arrestin-2-CHO cells (DiscoverX) were plated into 96-well white-walled assay plates at 15,000 cells/well in Cell Plating Reagent 2 (DiscoveRx) and incubated at 37° C., 5% CO2 overnight. The next day, test compounds were prepared at 10× concentration in DPBS/1% DMSO and 10 μL was added to the cells. CXCL-12 was included as a positive agonist control. Following a 1.5 hr incubation at 37° C., 55 μL of detection reagent (prepared according to the manufacturer's specifications) was added to each well. The plate was incubated at room temperature for 1 hr, after which luminescence was measured at 1 sec/well using an EnSpire multimode plate reader (PerkinElmer). Relative luminescence units (RLU) were plotted against the log of compound concentration and data were fit to a three-parameter logistic curve to generate EC50 values (GraphPad Prism). EC50 and % Emax values are reported as means±SEM and are the result of at least two independent experiments performed in duplicate. The CXCR4 assay was run similarly except that human CXCR4-C2Cl2 cells (DiscoverX) were plated at 20,000 cells/well in Cell Plating Reagent 9. The next day, the media was removed and cells were incubated with Cell Plating Reagent 4 for 3 hrs, after which the assay was conducted as described above.

KOR = KOR (Homo sapiens, UniProt P41145); test: KOR calcium mobilization agonist/antagonist screen (CHO-RD-HGA16 cells); design: host or cells: CHO-RD-HGA16; settings: single concentration; for Emax: CHO-RD-HGA16, agonist screen, control agonist U69,593; for KOR Calcium % U69, 593 Inhibition: antagonist screen, vs EC60 of U69,593
Method: as §1

MOR = MOR (Homo sapiens, UniProt P35372); test: MOR calcium mobilization agonist/antagonist screen (CHO-RD-HGA16 cells); design: host or cells: CHO-RD-HGA16; settings: single concentration; for Emax: CHO-RD-HGA16, agonist screen, control agonist DAMGO; for MOR Calcium % DAMGO Inhibition: antagonist screen, vs EC60 of DAMGO
Method: as §1

ACKR3 = ACKR3 (Homo sapiens, UniProt P25106); test: ACKR3 β-arrestin recruitment assay (PathHunter, β-galactosidase complementation); settings: for EC50: stable human ACKR3-β-arrestin-2-CHO cells, mean ± SEM, at least two independent experiments in duplicate; for Emax: read-out: ACKR3 β-arrestin % CXCL12 Emax ± SEM
Method: as §2

DOR = DOR (Homo sapiens, UniProt P41143); test: DOR calcium mobilization agonist/antagonist screen (CHO-RD-HGA16 cells); design: host or cells: CHO-RD-HGA16; settings: single concentration; for Emax: CHO-RD-HGA16, agonist screen, control agonist DPDPE; for DOR Calcium % DPDPE Inhibition: antagonist screen, vs EC60 of DPDPE
Method: as §1

Sequence of DOR (P41143 whole entry): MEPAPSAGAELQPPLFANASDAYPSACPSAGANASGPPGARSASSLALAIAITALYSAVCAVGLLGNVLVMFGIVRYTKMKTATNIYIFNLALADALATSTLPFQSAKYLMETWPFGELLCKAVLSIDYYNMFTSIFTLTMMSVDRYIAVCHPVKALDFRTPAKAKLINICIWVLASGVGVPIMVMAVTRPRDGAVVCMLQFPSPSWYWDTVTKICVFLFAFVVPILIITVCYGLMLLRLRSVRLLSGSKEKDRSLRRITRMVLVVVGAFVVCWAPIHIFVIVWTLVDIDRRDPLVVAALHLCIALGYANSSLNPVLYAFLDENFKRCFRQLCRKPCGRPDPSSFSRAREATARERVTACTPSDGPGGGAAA
Sequence of KOR (P41145 whole entry): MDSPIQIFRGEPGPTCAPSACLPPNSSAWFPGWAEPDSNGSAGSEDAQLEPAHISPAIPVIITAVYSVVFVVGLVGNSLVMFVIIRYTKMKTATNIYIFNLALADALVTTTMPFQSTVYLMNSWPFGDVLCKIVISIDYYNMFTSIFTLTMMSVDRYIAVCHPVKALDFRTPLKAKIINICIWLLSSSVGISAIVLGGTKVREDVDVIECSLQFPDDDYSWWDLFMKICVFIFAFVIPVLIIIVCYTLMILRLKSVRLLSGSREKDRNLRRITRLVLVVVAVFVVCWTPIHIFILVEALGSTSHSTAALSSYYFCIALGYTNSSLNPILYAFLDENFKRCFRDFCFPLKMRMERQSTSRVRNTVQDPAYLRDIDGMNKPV
Sequence of ACKR3 (P25106 whole entry): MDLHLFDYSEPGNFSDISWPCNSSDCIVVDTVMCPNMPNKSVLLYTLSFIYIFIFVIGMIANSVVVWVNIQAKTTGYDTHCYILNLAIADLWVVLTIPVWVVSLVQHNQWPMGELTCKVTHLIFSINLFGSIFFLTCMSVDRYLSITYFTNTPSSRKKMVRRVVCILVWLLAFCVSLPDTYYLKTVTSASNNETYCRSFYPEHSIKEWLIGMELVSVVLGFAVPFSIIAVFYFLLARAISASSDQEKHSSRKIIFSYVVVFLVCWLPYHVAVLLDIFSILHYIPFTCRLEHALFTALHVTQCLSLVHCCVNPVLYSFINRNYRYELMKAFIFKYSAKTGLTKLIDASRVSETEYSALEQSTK
T1 sequence (O95180 whole entry): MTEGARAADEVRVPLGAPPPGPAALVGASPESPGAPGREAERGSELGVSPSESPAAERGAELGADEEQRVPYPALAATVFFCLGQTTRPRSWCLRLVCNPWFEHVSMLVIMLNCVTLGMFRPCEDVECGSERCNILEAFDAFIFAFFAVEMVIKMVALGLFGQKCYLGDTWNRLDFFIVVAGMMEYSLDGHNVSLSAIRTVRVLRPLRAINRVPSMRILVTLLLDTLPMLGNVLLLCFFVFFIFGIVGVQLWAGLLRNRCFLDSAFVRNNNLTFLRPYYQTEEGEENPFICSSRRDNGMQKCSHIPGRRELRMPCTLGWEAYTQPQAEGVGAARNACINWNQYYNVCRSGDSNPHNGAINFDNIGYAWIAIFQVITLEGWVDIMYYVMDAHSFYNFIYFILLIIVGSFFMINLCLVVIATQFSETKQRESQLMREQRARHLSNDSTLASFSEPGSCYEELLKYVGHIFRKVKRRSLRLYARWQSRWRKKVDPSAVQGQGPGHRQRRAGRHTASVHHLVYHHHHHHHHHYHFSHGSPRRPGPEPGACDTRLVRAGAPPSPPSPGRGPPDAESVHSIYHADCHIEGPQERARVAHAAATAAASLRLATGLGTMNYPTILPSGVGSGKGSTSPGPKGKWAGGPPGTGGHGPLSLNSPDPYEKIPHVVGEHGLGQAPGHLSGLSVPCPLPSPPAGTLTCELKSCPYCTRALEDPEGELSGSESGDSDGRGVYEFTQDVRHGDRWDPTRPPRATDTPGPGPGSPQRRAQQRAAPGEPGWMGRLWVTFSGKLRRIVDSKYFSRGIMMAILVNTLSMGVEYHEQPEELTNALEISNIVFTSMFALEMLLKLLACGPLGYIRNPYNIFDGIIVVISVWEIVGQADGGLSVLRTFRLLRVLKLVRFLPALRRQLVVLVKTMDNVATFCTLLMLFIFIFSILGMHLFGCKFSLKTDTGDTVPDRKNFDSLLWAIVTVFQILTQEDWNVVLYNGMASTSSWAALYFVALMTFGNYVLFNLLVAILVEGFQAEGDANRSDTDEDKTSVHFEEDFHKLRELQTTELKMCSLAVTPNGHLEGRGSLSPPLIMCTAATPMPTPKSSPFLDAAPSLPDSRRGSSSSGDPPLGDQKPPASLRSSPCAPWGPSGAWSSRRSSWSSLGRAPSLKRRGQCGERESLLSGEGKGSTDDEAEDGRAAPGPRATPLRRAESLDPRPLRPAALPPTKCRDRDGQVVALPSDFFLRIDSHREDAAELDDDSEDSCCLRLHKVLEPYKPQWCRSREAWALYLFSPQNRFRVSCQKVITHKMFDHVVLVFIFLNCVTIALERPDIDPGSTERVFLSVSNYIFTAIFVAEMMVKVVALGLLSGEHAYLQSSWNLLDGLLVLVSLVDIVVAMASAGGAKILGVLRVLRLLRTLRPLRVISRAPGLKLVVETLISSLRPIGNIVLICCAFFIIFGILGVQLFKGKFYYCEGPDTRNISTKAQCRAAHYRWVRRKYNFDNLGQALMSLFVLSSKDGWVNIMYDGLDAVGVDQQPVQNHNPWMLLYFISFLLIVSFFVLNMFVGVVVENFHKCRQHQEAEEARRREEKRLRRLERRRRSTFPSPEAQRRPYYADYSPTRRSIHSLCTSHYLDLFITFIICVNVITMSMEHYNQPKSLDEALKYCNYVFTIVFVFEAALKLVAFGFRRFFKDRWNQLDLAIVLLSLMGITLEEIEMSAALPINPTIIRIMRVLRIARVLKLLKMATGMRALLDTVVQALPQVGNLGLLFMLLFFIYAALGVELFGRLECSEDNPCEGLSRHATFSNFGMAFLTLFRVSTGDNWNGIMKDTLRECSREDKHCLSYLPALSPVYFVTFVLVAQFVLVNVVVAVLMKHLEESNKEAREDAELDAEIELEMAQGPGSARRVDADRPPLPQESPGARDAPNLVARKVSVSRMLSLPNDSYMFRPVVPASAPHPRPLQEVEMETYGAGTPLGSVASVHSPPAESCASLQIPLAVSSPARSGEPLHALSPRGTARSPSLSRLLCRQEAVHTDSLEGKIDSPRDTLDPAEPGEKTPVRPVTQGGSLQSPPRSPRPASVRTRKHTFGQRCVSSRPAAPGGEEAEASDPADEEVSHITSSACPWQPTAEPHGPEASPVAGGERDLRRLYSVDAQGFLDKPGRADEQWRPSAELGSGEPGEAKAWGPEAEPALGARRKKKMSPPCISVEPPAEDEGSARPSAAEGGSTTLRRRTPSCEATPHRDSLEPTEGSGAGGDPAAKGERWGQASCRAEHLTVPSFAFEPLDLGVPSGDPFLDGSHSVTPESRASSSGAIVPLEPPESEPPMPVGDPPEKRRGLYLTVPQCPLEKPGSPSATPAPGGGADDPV
T2 sequence (P61073 whole entry): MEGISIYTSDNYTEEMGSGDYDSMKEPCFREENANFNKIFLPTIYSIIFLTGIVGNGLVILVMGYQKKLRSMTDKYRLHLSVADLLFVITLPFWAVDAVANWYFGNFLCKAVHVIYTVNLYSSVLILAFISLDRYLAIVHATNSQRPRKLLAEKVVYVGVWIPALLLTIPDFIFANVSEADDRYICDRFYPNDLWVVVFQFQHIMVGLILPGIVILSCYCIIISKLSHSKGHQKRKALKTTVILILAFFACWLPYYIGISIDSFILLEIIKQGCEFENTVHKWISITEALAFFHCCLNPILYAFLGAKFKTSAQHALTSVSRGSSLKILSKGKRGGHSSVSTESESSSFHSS
Sequence of MOR (P35372 whole entry): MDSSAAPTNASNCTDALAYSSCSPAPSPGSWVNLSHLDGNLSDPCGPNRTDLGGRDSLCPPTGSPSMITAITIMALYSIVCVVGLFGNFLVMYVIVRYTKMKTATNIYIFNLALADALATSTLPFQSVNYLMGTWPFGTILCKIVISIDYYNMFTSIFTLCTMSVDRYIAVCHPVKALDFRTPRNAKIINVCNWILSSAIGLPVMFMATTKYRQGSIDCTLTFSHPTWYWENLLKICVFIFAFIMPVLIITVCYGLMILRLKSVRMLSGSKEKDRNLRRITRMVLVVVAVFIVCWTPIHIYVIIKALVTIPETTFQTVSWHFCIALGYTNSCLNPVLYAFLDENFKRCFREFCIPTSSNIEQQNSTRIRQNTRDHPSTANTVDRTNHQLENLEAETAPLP

C/C=C1/CN(CC(C)C)CC[C@H]1C(=O)c1cc2ccccc2[nH]1 [WW-10, [(3E,4R)-3-ethylidene-1-(2-methylpropyl)piperidin-4-yl](1H-indol-2-yl)methanone]
CaV 3.2 % CaCl2 Inhibition (CaV 3.2): −3% | CXCR4 β-arrestin % CXCL-12Emax (n = 2) (human CXCR4): 2% | Emax (KOR): 7% | KOR Calcium % U69, 593 Inhibition (KOR): 8% | Emax (MOR): 1% | MOR Calcium % DAMGO Inhibition (MOR): 0% | EC50 (ACKR3): > 10 µM | Emax (DOR): 4% | DOR Calcium % DPDPE Inhibition (DOR): 5%

C/C=C1/CN(CCC)CC[C@H]1C(=O)c1cc2ccccc2[nH]1 [WW-14, [(3E,4R)-3-ethylidene-1-propylpiperidin-4-yl](1H-indol-2-yl)methanone]
CaV 3.2 % CaCl2 Inhibition (CaV 3.2): 5% | CXCR4 β-arrestin % CXCL-12Emax (n = 2) (human CXCR4): 8% | Emax (KOR): 3% | KOR Calcium % U69, 593 Inhibition (KOR): 6% | Emax (MOR): 1% | MOR Calcium % DAMGO Inhibition (MOR): 1% | Emax (ACKR3): 84 ± 6% | EC50 (ACKR3): 3.28 ± 0.39 µM | Emax (DOR): 5% | DOR Calcium % DPDPE Inhibition (DOR): 0%

CCC1CN2CC[C@H]1C(=O)c1[nH]c3ccccc3c1C2 (stereo partly drawn) [WW-15, (5R)-4-ethyl-1,4,5,7-tetrahydro-2,5-ethanoazocino[4,3-b]indol-6(3H)-one]
CaV 3.2 % CaCl2 Inhibition (CaV 3.2): 2% | CXCR4 β-arrestin % CXCL-12Emax (n = 2) (human CXCR4): 7% | Emax (KOR): 20% | KOR Calcium % U69, 593 Inhibition (KOR): 18% | Emax (MOR): 0% | MOR Calcium % DAMGO Inhibition (MOR): 7% | EC50 (ACKR3): > 10 µM | Emax (DOR): 0% | DOR Calcium % DPDPE Inhibition (DOR): 3%

C=C1c2[nH]c3ccccc3c2CN2CC[C@@H]1/C(=C\C)C2 [WW-16, (4E,5R)-4-ethylidene-6-methylidene-1,3,4,5,6,7-hexahydro-2,5-ethanoazocino[4,3-b]indole]
CaV 3.2 % CaCl2 Inhibition (CaV 3.2): 21% | CXCR4 β-arrestin % CXCL-12Emax (n = 2) (human CXCR4): 6% | Emax (KOR): 2% | KOR Calcium % U69, 593 Inhibition (KOR): 23% | Emax (MOR): 0% | MOR Calcium % DAMGO Inhibition (MOR): 15% | Emax (ACKR3): 81 ± 5% | EC50 (ACKR3): 4.62 ± 0.41 µM | Emax (DOR): 0% | DOR Calcium % DPDPE Inhibition (DOR): 18%

CCOC(=O)C1CCN(Cc2c[nH]c3ccccc23)CC1 [WW-17, ethyl 1-(1H-indol-3-ylmethyl)piperidine-4-carboxylate]
CaV 3.2 % CaCl2 Inhibition (CaV 3.2): −11% | CXCR4 β-arrestin % CXCL-12Emax (n = 2) (human CXCR4): 7% | Emax (KOR): 1% | KOR Calcium % U69, 593 Inhibition (KOR): 5% | Emax (MOR): 1% | MOR Calcium % DAMGO Inhibition (MOR): 4% | Emax (ACKR3): 146 ± 6% | EC50 (ACKR3): 4.81 ± 0.45 µM | Emax (DOR): 0% | DOR Calcium % DPDPE Inhibition (DOR): 11%

O=C(c1cc2ccccc2[nH]1)C1CCN(Cc2ccccc2)CC1 [WW-18, (1-Benzylpiperidin-4-yl)(1H-indol-2-yl)methanone]
CaV 3.2 % CaCl2 Inhibition (CaV 3.2): −2% | CXCR4 β-arrestin % CXCL-12Emax (n = 2) (human CXCR4): 8% | Emax (KOR): 0% | KOR Calcium % U69, 593 Inhibition (KOR): 8% | Emax (MOR): 0% | MOR Calcium % DAMGO Inhibition (MOR): 2% | EC50 (ACKR3): > 10 µM | Emax (DOR): 0% | DOR Calcium % DPDPE Inhibition (DOR): 6%
